Laboratory results: PubChem BioAssay AID1996
Values after ≈ are worked out from the molar mass of the structure shown.

settings: buffer; pH 7.4; 200.0 µM

| SMILES | solubility kinetic [µg/mL] |
| --- | --- |
| Cc1ccc(NC(=O)CCN2CCOCC2)cc1C | > 39.4 |
| CCC1CCc2c(sc(NC(=O)c3cnccn3)c2C(N)=O)C1 (stereo not given) | 1.8 (≈ 5.45 µM) |
| Nc1ccc(Sc2ccccc2)nc1 | > 30.3 |
| Nc1nc(NCCOCCO)nc(N2CCCCCC2)c1[N+](=O)[O-] | 47.4 (≈ 139 µM) |
| COc1ccc(NC(=O)CCCC(=O)O)cc1Cl | > 40.8 |
| Cc1cc(C)nc(Nc2nc3ccccc3o2)n1 | > 36 |
| Cl.c1ccc(OCC2CCNCC2)nc1 | 33.7 |
| COc1cccc(CNc2cc(C)ccn2)c1O | > 36.6 |
| CN(C)CCCNC(=O)c1cc(C(=O)Cc2ccccc2)c[nH]1 | > 47 |
| O=[N+]([O-])c1ccc(N2CCCC2)nc1N1CCCC1 | 21.4 (≈ 81.6 µM) |
| O=C(NC1CCCCC1)C1CCCN1C(=O)Nc1ccccc1 (stereo not given) | > 47.3 |
| CC(=O)Nc1ccc(C(=O)COC(=O)CCN2C(=O)C3CC=CCC3C2=O)cc1 (stereo not given) | > 59.8 |
| COc1ccc(Cl)cc1NC(=O)CN1CCc2ccccc2C1 | < 0.4 |
| N#Cc1ccccc1OCC(=O)NC(=O)NCc1ccco1 | 7.4 (≈ 24.7 µM) |
| COc1ccc(N(C=O)C(C(=O)Nc2c(C)cccc2C)c2ccccc2)cc1 (stereo not given) | 1.6 (≈ 4.12 µM) |
| C=CCn1c(C)nnc1SCC(=O)NC1CCCCC1 | > 44.2 |
| O=C(COc1cccnc1[N+](=O)[O-])NCc1cccs1 | > 44 |
| CN1CCC(N(C)C(=O)c2ccc(Cl)c(S(=O)(=O)N(C)c3ccc(Cl)cc3)c2)CC1 | > 70.6 |
| CCc1noc(C)c1C(=O)N(CCOC)c1c(N)n(CC(C)C)c(=O)[nH]c1=O | 55.6 (≈ 141 µM) |
| CC(=O)NC(CC(=O)O)c1ccccc1 (stereo not given) | > 31.1 |
| Cc1ccccc1NC(=O)Cc1nc(COC(=O)c2ccc(NC(N)=O)cc2)cs1 | 17.6 (≈ 41.5 µM) |
| O=C(c1cc(Cl)nc2ccccc12)N1CCc2ccccc2C1 | 34.5 (≈ 107 µM) |
| CCN(c1ccccc1)c1nc(=O)c2cccnc2s1 | > 42.5 |
| CCOC(=O)CN1C(=O)NC2(CCCc3ccccc32)C1=O (stereo not given) | > 45.3 |

| SMILES | solubility kinetic [µg/mL] |
| --- | --- |
| Cc1ccc(C(=O)C2=C(O)C(=O)N(Cc3ccco3)C2c2ccc(N(C)C)cc2)o1 (stereo not given) | > 61 |
| O=c1ccc2cc(S(=O)(=O)Nc3ccccc3F)ccc2o1 | > 47.9 |
| O=C(C1CC1)N1CCN(c2ccc([N+](=O)[O-])cc2)CC1 | > 41.3 |
| CC(=O)O.O=S(=O)(Cc1ccccc1)N1CCNCC1 | 34.3 |
| COc1ccc(-c2csc(Nc3cccc(C)n3)n2)cc1 | < 0.2 |
| CN(C)S(=O)(=O)c1ccc(NC=O)cc1 | > 34.2 |
| CC(C)N(C(=S)Nc1cccnc1)c1ccccc1 | 32.8 (≈ 121 µM) |
| C=CCNC(=O)c1cc(-c2cccnc2)nc2ccccc12 | > 43.4 |
| COCCNc1cnn(-c2ccccc2)c(=O)c1Cl | > 42 |
| Cc1cc2[nH]c(=O)c(=O)[nH]c2cc1S(=O)(=O)NCc1ccccc1 | > 51.8 |
| COc1ccc(S(=O)(=O)N(C)CC(=O)NC2CC2)cc1OC | > 49.3 |
| Cc1cc(NC(=O)NC(=O)c2ccccc2)no1 | 2.8 (≈ 11.4 µM) |
| O=C1CSC(c2ccccc2)N1Cc1ccccn1 (stereo not given) | > 40.6 |
| COc1cccc(CNCCc2c[nH]c3ccccc23)c1 | 35.8 (≈ 128 µM) |
| Cc1ccc(S(=O)(=O)Nc2ccccc2N2CCCCC2)cc1 | 3.1 (≈ 9.38 µM) |
| CC(Sc1ccccc1F)C(=O)Nc1cccc(S(=O)(=O)N2CCOCC2)c1 (stereo not given) | > 63.7 |
| Cc1ccccc1C(=O)Nc1cccc(NC(=O)c2cccs2)c1 | 17.7 (≈ 52.6 µM) |
| O=C(CCSCc1cccc(F)c1)NCCc1ccccc1 | 18.4 (≈ 58 µM) |
| CCOc1cc(C(=O)NCc2ccco2)cc(OCC)c1OCC | 49.7 (≈ 149 µM) |
| O=C(CCCc1ccccc1)N1CCN(C2CCCCC2)CC1 | 46.6 (≈ 148 µM) |
| C/C(Nc1ccccc1C(F)(F)F)=C1/CCOC1=O | 18.7 (≈ 68.9 µM) |
| CC(C)OCc1ccc(C(=O)N2CCN(CC(=O)N3CCCC3)CC2)cc1 | > 56 |
| Cc1cc(C)c(C)c(S(=O)(=O)NCCCn2ccnc2)c1C | 39.8 (≈ 124 µM) |
| c1ccc2c(CN3CCCCC3)c[nH]c2c1 | > 32.1 |

| SMILES | solubility kinetic [µg/mL] |
| --- | --- |
| O=C(c1cc2cc(F)ccc2[nH]1)N1CCC(Cc2ccccc2)CC1 | 1.3 (≈ 3.86 µM) |
| Cc1ccc(CN2CC(C(=O)Nc3ccc(C)cn3)CC2=O)cc1 (stereo not given) | > 48.5 |
| O=c1[nH]c2cc3ccccc3cc2nc1C(F)(F)F | 2.9 (≈ 11 µM) |
| CC(C)C(=O)N=c1sc2cccc(F)c2n1C | 13.2 (≈ 52.3 µM) |
| CN(CC(=O)NC(=O)NC1CCCCC1)c1ccccc1 | 6.7 (≈ 23.2 µM) |
| COc1cccc(-c2noc(CCCC(=O)N3CCOCC3)n2)c1 | > 49.7 |
| CN1CCN(C(=O)/C(=C/c2ccc(F)cc2)NC(=O)c2ccccc2)CC1 | 54.5 (≈ 148 µM) |
| CN(C)CCCNc1oc(/C=C/c2ccccc2)nc1C#N | > 44.5 |
| CC(C)c1cccc(C(C)C)c1OC(=O)NC(=O)c1c(F)cccc1F | 17.4 (≈ 48.1 µM) |
| O=C(c1cc(Cl)ccc1Cl)N1CCN(Cc2ccccc2)CC1 | > 52.4 |
| C=CCn1c(O)c(C=Nc2c(C)n(C)n(-c3ccccc3)c2=O)c(=O)[nH]c1=O | > 57.2 |
| Cc1nc(NC(=O)c2cc3ccccc3o2)sc1C | 3.1 (≈ 11.4 µM) |
| O=C(CN1C(=O)NC2(CCOc3ccccc32)C1=O)c1cccs1 (stereo not given) | > 51.4 |
| C=CCN1CC(C)/C(=N\O)CC1C (stereo not given) | 26.4 (≈ 145 µM) |
| CCN(Cc1ccccc1)C(=O)c1[nH]c2ccc(OC)cc2c1C | 31.2 (≈ 96.8 µM) |
| CCN(CC)P(=O)(c1ccccc1)c1c(C)nc2ccccn12 (stereo not given) | > 49.1 |
| Cc1cc2c(c(=O)o1)C(CCC1CCCCC1)C(C#N)=C(N)O2 (stereo not given) | 8 (≈ 25.4 µM) |
| COc1ccc(-c2cc(C(=O)NC3CCCC3)c3ccccc3n2)cc1OC | 1.6 (≈ 4.25 µM) |
| CC(=O)N1Cc2ccccc2CC1C(=O)N1CCN(c2ccccc2)CC1 (stereo not given) | 43.5 (≈ 120 µM) |
| CC(=O)c1c(OC(=O)c2ccccc2)ccnc1C(F)(F)F | > 46.4 |
| COc1cccc(NC(=O)COC(=O)CCSc2ccccc2)c1 | 39.8 (≈ 115 µM) |
| NC(=O)COC(=O)c1c2c(nc3ccccc13)CCCCC2 | > 44.8 |
| O=C(N1CCCC1)C12CC3CC(CC(Cl)(C3)C1)C2 | 37.9 (≈ 142 µM) |
| O=C(COC(=O)c1cnccn1)Nc1ccccc1-c1ccccc1 | > 50 |

| SMILES | solubility kinetic [µg/mL] |
| --- | --- |
| COC(=O)c1cc2c(=O)c3ccccc3oc2nc1C | 5.4 (≈ 20.1 µM) |
| CCN(CC)CCN(C(=O)c1ccc2ccccc2c1)c1nc2ccc(OC)cc2s1.Cl | 14.2 |
| CN(C)S(=O)(=O)c1cccc(C(=O)OCC(=O)N2CCCC2=O)c1 | > 53.2 |
| O=[N+]([O-])c1c(NCCO)cc(N2CCCCCC2)c2nonc12 | 40.5 (≈ 126 µM) |
| CC1CCCC(NC(=O)Cn2c(Cl)nc3c2c(=O)n(C)c(=O)n3C)C1C (stereo not given) | > 57.3 |
| CC(Cc1ccccc1)NC=O (stereo not given) | 24.4 (≈ 149 µM) |
| Cc1ccoc1C(=O)Nc1ccc2ccccc2c1 | 7.5 (≈ 29.8 µM) |
| O=C1Nc2ccccc2C1=Nc1ccc(Cl)cc1 | 13.5 (≈ 52.6 µM) |
| CC1CCCC(NC(=O)CCC(=O)NCc2ccccc2)C1C (stereo not given) | 44.7 (≈ 141 µM) |
| Cc1ccc(S(=O)(=O)NC(C)CCc2ccccc2)cc1C(N)=O (stereo not given) | > 52 |
| CCOC(=O)C1CCCN(C(=O)c2cc3ccccc3oc2=O)C1 (stereo not given) | 38.8 (≈ 118 µM) |
| c1ccc2sc(NCC3CCCO3)nc2c1 (stereo not given) | > 35.1 |
| COc1ccccc1NC(=O)c1ccc([N+](=O)[O-])o1 | 36.8 (≈ 140 µM) |
| C=CC#CC1(O)CC(C)N(C)CC1C (stereo not given) | > 29 |
| Cc1onc(-c2ccccc2)c1C(=O)NCc1ccc(F)cc1 | 7 (≈ 22.6 µM) |
| CC(=O)c1sc(-c2ccccc2)cc1NS(=O)(=O)c1ccccc1 | < 0.8 |
| CN1C(=O)c2ccccc2C(O)c2ccccc21 (stereo not given) | 31.8 (≈ 133 µM) |
| COc1ccc(-c2cc(-c3cccnc3)c(C#N)c(N)n2)cc1 | 0.6 (≈ 1.98 µM) |
| CCCCCC(=O)Oc1cccc(N2C(=O)C3CCCCC3C2=O)c1 (stereo not given) | 4.3 (≈ 12.5 µM) |
| O=C1NCCCN1Cc1ccc(Cl)cc1 | > 33.7 |
| S=C(NCCc1c[nH]c2ccccc12)NC1CCCCC1 | 2.8 (≈ 9.29 µM) |
| CCc1nonc1NC(=O)c1oc2ccc(F)cc2c1C | 0.3 (≈ 1.04 µM) |
| CC(=O)c1sc(-c2ccc(Cl)cc2)nc1C | < 0.5 |
| CCCCOc1ccc(C(=O)Oc2cccnc2)cc1 | 1.5 (≈ 5.53 µM) |

| SMILES | solubility kinetic [µg/mL] |
| --- | --- |
| CCn1c(SCC(=O)N2CCCC2)nc2ccccc21 | > 43.4 |
| O=C(CC1SC(N2CCOCC2)=NC1=O)Nc1ccc(F)cc1 (stereo not given) | > 50.6 |
| Cn1nc(C(=O)OCC(=O)NCCc2ccccc2)c2ccccc2c1=O | > 54.8 |
| Cc1ccc(NC(=O)N(CCC#N)Cc2ccccc2)cc1 | > 44 |
| CC(C(=O)N1CCOCC1)n1cc([N+](=O)[O-])cn1 (stereo not given) | > 38.1 |
| Cc1ccc(NC(=O)COC(=O)CNC(=O)C2CCCCC2)cc1S(=O)(=O)N(C)C | > 65.9 |
| Cc1ccc(CNC(=O)N2CCN(c3ccc(C)cc3)CC2)cc1 | 4.1 (≈ 12.7 µM) |
| COc1ccc(C(C)(C)C)cc1NC(=O)C1CCCO1 (stereo not given) | 41.5 (≈ 150 µM) |
| CCOc1ccc(C(=O)Nc2nc(C)c(C(=O)OC)s2)cc1 | < 0.3 |
| NC(=O)c1ccc(Nc2ccc3nonc3c2[N+](=O)[O-])cc1 | 17.9 (≈ 59.8 µM) |
| Cc1ccc(NC(=O)CN(C)C(=O)c2ccc(NS(=O)(=O)c3cccc([N+](=O)[O-])c3)cc2)cc1 | 11.6 (≈ 24 µM) |
| COC(=O)c1[nH]c2c(c1C)C(=O)CC(c1ccc(OC)c(OC)c1)C2 (stereo not given) | 2.1 (≈ 6.12 µM) |
| O=C(CSc1nccc(=O)[nH]1)Nc1ccc2ccccc2c1 | > 46.7 |
| O=C(CCN1C(=O)c2ccccc2C1=O)CN1CCOCC1 | 36.5 (≈ 121 µM) |
| O=C(NC1C2CC3CC(C2)CC1C3)c1ccc2c(c1)OCO2 (stereo not given) | 7.9 (≈ 26.4 µM) |
| COc1ccccc1NC(=O)c1ccccc1Nc1ccccc1 | 0.5 (≈ 1.57 µM) |
| Cc1ccc(S(=O)(=O)N2CCCCC2)cc1NC(=O)c1ccccc1Cl | 23.2 (≈ 59 µM) |
| Cc1ccc(C(C)NC(=O)c2ccc3c(c2)OCO3)cc1C (stereo not given) | 39.4 (≈ 133 µM) |
| CC1CC(C)CN(C(=O)CN2C(=O)NC3(CCCCCC3)C2=O)C1 (stereo not given) | > 50.3 |
| Cc1cc(C)c(NC(=O)CN2C(=O)NC3(CCc4ccccc43)C2=O)c(Cl)c1 (stereo not given) | 33.1 (≈ 83.2 µM) |
| Cc1ccc(-c2cc3ccccc3nc2N)cc1 | 4 (≈ 17.1 µM) |
| OCc1cc(Br)ccc1OCc1nc2ccccc2s1 | < 0.8 |
| C=CCc1c(N(CC)CC)nc(C)[nH]c1=O | > 33.2 |
| Cc1ccc(NC(=S)NC2CCCC2)c(C)c1 | 33.3 (≈ 134 µM) |
